From US11690845B2, “Methods of administering elagolix” (priority 2020, dated 2023)

Assays:
[1] = Drug interactions: effects of ORIAHNN on plasma exposure of other drugs; details: co-administration of ORIAHNN
[2] = Drug interaction studies: pharmacokinetics of co-administered drug in the presence of elagolix; type: in vivo, human; details: for changes in exposures when co-administered with elagolix: elagolix 300 mg twice daily
Description: Drug interaction studies were performed with elagolix and other drugs likely to be co-administered and with drugs commonly used as probes for pharmacokinetic interactions. Tables 7 and 8 summarize the pharmacokinetic effects when elagolix was co-administered with these drugs.

[3] = Drug-drug interaction study: effect of elagolix on pharmacokinetics of CYP2B6 substrate bupropion and OH-bupropion; safety; details: for Tmax / Metabolite to Parent AUCinf Ratio / Metabolite to Parent AUCt Ratio / Metabolite to Parent Cmax Ratio: median; for Tmax: N = 24; for t1/2: harmonic mean; for AUCinf / AUCt / Cmax: mean
Description: Subjects: Twenty four (24) adult premenopausal women in generally good health participated in this study.
Elagolix 300 mg BID (as 300 mg immediate release tablets) was administered in the morning and evening on days 1 through 14 in period 2. […] No food was consumed for 2 hours prior to the evening doses of elagolix continuing through 2 hours after. The doses of elagolix were separated by approximately 12 hours.
Individual PK parameters (peak concentration [Cmax] and area under the concentration-time curve [AUC]) were estimated using noncompartmental methods.
Central value ratios (90% confidence intervals) for Cmax, AUC, and metabolite to parent ratios (MPRs) (day 11, period 2 vs. day 1, period 1) were calculated to assess the DDIs. Safety was evaluated through assessment of adverse events, vital signs, electrocardiogram, and clinical laboratory tests.
Adverse events (AEs) were monitored throughout the DDI study. Additional safety evaluations included monitoring of physical examinations, vital signs, electrocardiogram variables, and clinical laboratory values were assessed

CYP3A = test: Substrate of / metabolism by CYP3A; type: in vitro ADME
clinical = details: human, in vivo
Description: Subjects: Twenty adult premenopausal female subjects were enrolled in the study.
Beginning on Day 3, subjects received elagolix 300 mg BID under fasting conditions every day until Day 10. […] Doses of elagolix were separated by approximately 12 hours.
Testing was performed for CYP2C19 variants including the *2 (rs4244285), *3 (rs4986893), *4 (rs28399504), *8 (rs41291556), *10 (rs6413438) and *12 (rs55640102) alleles.
Safety was evaluated during confinement and at each study visit through adverse event monitoring, vital signs measurements, physical examinations, and routine laboratory tests.

[4] = Midazolam 2 mg single dose, elagolix 150 mg once daily ×13 days, N 11
[5] = Midazolam 2 mg single dose, elagolix 300 mg twice daily ×11 days, N 20
[6] = Bupropion + Elagolix (Day 11, Period 2)
[7] = Bupropion Alone (Day 1, Period 1)
[8] = single 150 mg bupropion, elagolix 300 mg twice daily for 10 preceding days, interval in brackets
[9] = Digoxin 0.5 mg single dose, elagolix 200 mg twice daily ×10 days, N 11
[10] = Rosuvastatin 20 mg once daily, elagolix 300 mg twice daily ×7 days, N 10

Cc1ncc2n1-c1ccc(Cl)cc1C(c1ccccc1F)=NC2 [midazolam]
Effect on Plasma Exposure of Concomitant Drug (AUC) [1]: ↓ midazolam
Ratio (90% CI) AUC, co-administration with elagolix vs medication alone [2, 4]: 0.65
Ratio (90% CI) Cmax, co-administration with elagolix vs medication alone [2, 4]: 0.81
Ratio (90% CI) AUC, co-administration with elagolix vs medication alone [2, 5]: 0.46
Ratio (90% CI) Cmax, co-administration with elagolix vs medication alone [2, 5]: 0.56

C[C@H]1NC(C)(C)CO[C@]1(O)c1cccc(Cl)c1 [hydroxybupropion]
Tmax ([3]; Bupropion + Elagolix (Day 11, Period 2), elagolix 300 mg BID): 6.0 h
t1/2 [3, 6]: 20.5 h
AUCinf [3, 6]: 17600 ng·h/mL
AUCt [3, 6]: 17000 ng·h/mL
Cmax [3, 6]: 429 ng/mL
Metabolite to Parent AUCinf Ratio [3, 6]: 15.9
Metabolite to Parent AUCt Ratio [3, 6]: 15.9
Metabolite to Parent Cmax Ratio [3, 6]: 3.92
Tmax ([3]; Bupropion Alone (Day 1, Period 1), 150 mg single dose): 10.0 h
t1/2 [3, 7]: 24.7 h
AUCinf [3, 7]: 16700 ng·h/mL
AUCt [3, 7]: 15700 ng·h/mL
Cmax [3, 7]: 323 ng/mL
Metabolite to Parent AUCinf Ratio [3, 7]: 15.7
Metabolite to Parent AUCt Ratio [3, 7]: 15.4
Metabolite to Parent Cmax Ratio [3, 7]: 3.61
increase in Cmax upon co-administration with elagolix ([3]; elagolix 300 mg BID): 32%
changes in OH-bupropion/bupropion ratios of Cmax and AUC upon co-administration with elagolix ([3]; elagolix 300 mg BID, minimal changes): ≤ 120%
AUCinf ratio, co-administration of bupropion with elagolix vs bupropion alone (A/B) [3, 8]: about 1.063
Cmax ratio, co-administration of bupropion with elagolix vs bupropion alone (A/B) [3, 8]: about 1.317

C[C@]12CC[C@@H]3c4ccc(O)cc4CC[C@H]3[C@@H]1CC[C@@H]2O [estradiol]
metabolism by CYP3A (CYP3A): metabolized partially

COc1ccc2nc([S+]([O-])Cc3ncc(CO)c(OC)c3C)[nH]c2c1 (stereo not shown) [5-hydroxyomeprazole]
decrease in AUCinf with elagolix (clinical): 20-30%
AUCinf (clinical; 40 mg): 1880 ng·h/mL
AUCt (clinical; 40 mg): 1820 ng·h/mL
Cmax (clinical; 40 mg): 491 ng/mL
t1/2 (clinical; 40 mg): 1.57 h
decrease in AUCinf with elagolix (clinical; 300 mg): ~25%
decrease in Cmax with elagolix (clinical; 300 mg): approximately 30%

OC(Cn1cncn1)(Cn1cncn1)c1ccc(F)cc1F [fluconazole]
changes in exposures when co-administered with elagolix [2]: No clinically significant changes

C#C[C@]1(OC(C)=O)CC[C@H]2[C@@H]3CCC4=CC(=O)CC[C@@H]4[C@H]3CC[C@@]21C [norethindrone acetate]
metabolism by CYP3A (CYP3A): metabolized partially

COc1ccc2[nH]c([S+]([O-])Cc3ncc(C)c(OC)c3C)nc2c1 (stereo not shown) [omeprazole, 5-methoxy-2-[[(4-methoxy3,5-dimethyl-2-pyridinyl)methyl]sulfinyl]-1H-benzimidazole, reference compound]
Effect on Plasma Exposure of Concomitant Drug (AUC) [1]: ↑ omeprazole
decrease in AUCinf with elagolix (clinical; female): 40%
increase in AUCinf with elagolix (clinical; female, 300 mg): 1.8 fold
increase in Cmax with elagolix (clinical; female, 300 mg): 1.9 fold
increase in exposure (AUCinf) with elagolix (clinical; female, im): 2-2.5 fold
Cmax and AUCinf values upon co-administration with elagolix (direction of change) (clinical): increased

CC(NC(C)(C)C)C(=O)c1cccc(Cl)c1.Cl (racemic) [bupropion, (±)-1-(3-chlorophenyl)-2-[(1,1-dimethylethyl)amino]-1-propanone hydrochloride]
changes in exposures when co-administered with elagolix [2]: No clinically significant changes

COc1ccc2nc(S(=O)(=O)Cc3ncc(C)c(OC)c3C)[nH]c2c1 [omeprazole sulfone]
M:P AUCinf Ratio, Relative Bioavailability Point Estimate (clinical; female): 1.246
M:P AUCt Ratio, Relative Bioavailability Point Estimate (clinical; female): 1.497
increase in exposures with elagolix (clinical; female): ~3 fold
Cmax (clinical; female, 40 mg): 162 ng/mL
M:P AUCinf Ratio, Central Value Reference (clinical; female, 40 mg): 0.825
M:P AUCt Ratio, Central Value Reference (clinical; female, 40 mg): 0.679
RAUCinf (metabolite-to-parent AUCinf ratio) (clinical; female, 40 mg): 0.85
RAUCt (metabolite-to-parent AUCt ratio) (clinical; female, 40 mg): 0.76
increase in AUCinf with elagolix (clinical; female, 300 mg): 2.5 fold
increase in Cmax with elagolix (clinical; female, 300 mg): 2.7 fold
increase in M:P AUCinf ratio with elagolix (clinical; female, 300 mg): 25%
Cmax and AUCinf values upon co-administration with elagolix (direction of change) (clinical): increased

C[C@H]1O[C@@H](O[C@H]2[C@@H](O)C[C@H](O[C@H]3[C@@H](O)C[C@H](O[C@H]4CC[C@@]5(C)[C@H](CC[C@@H]6[C@@H]5C[C@@H](O)[C@]5(C)[C@@H](C7=CC(=O)OC7)CC[C@]65O)C4)O[C@@H]3C)O[C@@H]2C)C[C@H](O)[C@@H]1O [digoxin]
Effect on Plasma Exposure of Concomitant Drug (AUC) [1]: ↑ digoxin
Ratio (90% CI) AUC, co-administration with elagolix vs medication alone [2, 9]: 1.26
Ratio (90% CI) Cmax, co-administration with elagolix vs medication alone [2, 9]: 1.71

CC(C)c1nc(N(C)S(C)(=O)=O)nc(-c2ccc(F)cc2)c1/C=C/[C@@H](O)C[C@@H](O)CC(=O)O [rosuvastatin]
Effect on Plasma Exposure of Concomitant Drug (AUC) [1]: ↓ rosuvastatin
Ratio (90% CI) AUC, co-administration with elagolix vs medication alone [2, 10]: 0.60
Ratio (90% CI) Cmax, co-administration with elagolix vs medication alone [2, 10]: 0.99

CN[C@H]1CC[C@@H](c2ccc(Cl)c(Cl)c2)c2ccccc21 [sertraline]
changes in exposures when co-administered with elagolix [2]: No clinically significant changes
